# ChEMBL document CHEMBL5291721, “A preclinical secondary pharmacology resource illuminates target-adverse drug reaction associations of marketed drugs” (Nat Commun, 2023)
# How the values were obtained:
# Adenosine receptor A3 = target: T1, Adenosine receptor A3 (Homo sapiens, UniProt P0DMS8)
# T1 sequence (P0DMS8 whole entry): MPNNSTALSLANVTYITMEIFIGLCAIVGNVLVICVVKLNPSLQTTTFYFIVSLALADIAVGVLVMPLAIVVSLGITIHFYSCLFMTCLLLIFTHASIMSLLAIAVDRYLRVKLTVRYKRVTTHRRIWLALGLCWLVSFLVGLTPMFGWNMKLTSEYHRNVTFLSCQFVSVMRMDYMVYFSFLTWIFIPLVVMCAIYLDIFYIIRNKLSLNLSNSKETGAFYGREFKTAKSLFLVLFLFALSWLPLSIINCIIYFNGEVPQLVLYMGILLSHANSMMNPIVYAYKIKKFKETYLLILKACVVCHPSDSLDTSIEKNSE
# [1] = target: Sodium-dependent serotonin transporter (Homo sapiens, UniProt P31645)
# [2] = target: Vascular endothelial growth factor receptor 2 (Homo sapiens, UniProt P35968); format: functional
# Adenosine receptor A1 = target: T2, Adenosine receptor A1 (Homo sapiens, UniProt P30542)
# T2 sequence (P30542 whole entry): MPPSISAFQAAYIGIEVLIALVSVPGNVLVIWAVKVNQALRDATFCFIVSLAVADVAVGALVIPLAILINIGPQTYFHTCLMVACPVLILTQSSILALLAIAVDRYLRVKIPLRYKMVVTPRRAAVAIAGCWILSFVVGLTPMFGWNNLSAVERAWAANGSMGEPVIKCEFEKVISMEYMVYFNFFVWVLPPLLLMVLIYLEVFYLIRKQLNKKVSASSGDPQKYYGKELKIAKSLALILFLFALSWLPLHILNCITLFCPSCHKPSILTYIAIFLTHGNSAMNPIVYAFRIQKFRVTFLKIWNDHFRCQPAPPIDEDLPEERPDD
# [3] = target: T3, Neuropeptide Y receptor type 1 (Homo sapiens, UniProt P25929)
# T3 sequence (P25929 whole entry): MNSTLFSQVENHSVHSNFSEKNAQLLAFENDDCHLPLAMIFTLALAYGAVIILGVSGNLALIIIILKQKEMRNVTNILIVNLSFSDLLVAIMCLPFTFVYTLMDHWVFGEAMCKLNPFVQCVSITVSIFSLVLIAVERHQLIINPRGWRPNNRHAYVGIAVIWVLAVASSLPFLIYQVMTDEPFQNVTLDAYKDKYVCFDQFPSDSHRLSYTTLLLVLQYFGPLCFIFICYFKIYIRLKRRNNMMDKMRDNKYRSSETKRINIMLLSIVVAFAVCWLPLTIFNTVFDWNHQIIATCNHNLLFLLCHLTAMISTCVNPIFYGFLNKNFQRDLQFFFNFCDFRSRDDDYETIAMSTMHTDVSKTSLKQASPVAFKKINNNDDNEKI
# Histamine H3 receptor = Histamine H3 receptor (Homo sapiens, UniProt Q9Y5N1)
# Melanocortin receptor 3 = Melanocortin receptor 3 (Homo sapiens, UniProt P41968)
# [4] = target: T4, 5-hydroxytryptamine receptor 3A (Homo sapiens, UniProt P46098); format: functional
# T4 sequence (P46098 whole entry): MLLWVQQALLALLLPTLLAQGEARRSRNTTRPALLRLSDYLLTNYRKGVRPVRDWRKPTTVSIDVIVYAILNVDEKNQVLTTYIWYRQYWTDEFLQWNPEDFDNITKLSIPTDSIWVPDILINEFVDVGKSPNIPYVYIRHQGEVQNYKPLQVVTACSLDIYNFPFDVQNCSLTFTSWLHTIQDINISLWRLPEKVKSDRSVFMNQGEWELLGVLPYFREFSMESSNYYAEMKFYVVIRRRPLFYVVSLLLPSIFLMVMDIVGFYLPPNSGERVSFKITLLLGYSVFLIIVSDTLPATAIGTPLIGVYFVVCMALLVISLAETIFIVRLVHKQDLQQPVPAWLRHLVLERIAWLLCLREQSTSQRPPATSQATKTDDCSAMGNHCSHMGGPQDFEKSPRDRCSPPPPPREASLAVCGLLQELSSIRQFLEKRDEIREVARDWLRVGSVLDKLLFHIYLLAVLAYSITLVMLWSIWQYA
# [5] = target: Gamma-aminobutyric acid receptor subunit alpha-1 (Rattus norvegicus, UniProt P62813); format: functional
# [6] = target: Voltage-dependent L-type calcium channel subunit alpha-1C (Rattus norvegicus, UniProt P22002); format: functional
# [7] = target: T5, 5-hydroxytryptamine receptor 2C (Homo sapiens, UniProt P28335)
# T5 sequence (P28335 whole entry): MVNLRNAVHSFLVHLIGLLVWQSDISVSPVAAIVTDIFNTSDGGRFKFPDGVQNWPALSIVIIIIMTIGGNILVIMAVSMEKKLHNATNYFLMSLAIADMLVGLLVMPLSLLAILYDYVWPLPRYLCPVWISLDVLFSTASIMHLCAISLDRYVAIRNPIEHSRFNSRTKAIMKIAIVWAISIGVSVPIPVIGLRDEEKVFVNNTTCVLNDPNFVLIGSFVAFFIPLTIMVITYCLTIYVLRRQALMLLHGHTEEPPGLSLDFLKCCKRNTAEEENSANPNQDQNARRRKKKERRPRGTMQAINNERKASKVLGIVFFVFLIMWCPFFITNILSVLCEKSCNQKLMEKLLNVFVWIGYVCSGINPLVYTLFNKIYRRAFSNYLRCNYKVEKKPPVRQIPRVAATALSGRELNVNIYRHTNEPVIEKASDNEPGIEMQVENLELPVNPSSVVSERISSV
# D(1A) dopamine receptor = D(1A) dopamine receptor (Homo sapiens, UniProt P21728); format: functional, cell-based
# Further: assay procedure not described here.
# Sodium-dependent serotonin transporter, sequence (P31645 whole entry): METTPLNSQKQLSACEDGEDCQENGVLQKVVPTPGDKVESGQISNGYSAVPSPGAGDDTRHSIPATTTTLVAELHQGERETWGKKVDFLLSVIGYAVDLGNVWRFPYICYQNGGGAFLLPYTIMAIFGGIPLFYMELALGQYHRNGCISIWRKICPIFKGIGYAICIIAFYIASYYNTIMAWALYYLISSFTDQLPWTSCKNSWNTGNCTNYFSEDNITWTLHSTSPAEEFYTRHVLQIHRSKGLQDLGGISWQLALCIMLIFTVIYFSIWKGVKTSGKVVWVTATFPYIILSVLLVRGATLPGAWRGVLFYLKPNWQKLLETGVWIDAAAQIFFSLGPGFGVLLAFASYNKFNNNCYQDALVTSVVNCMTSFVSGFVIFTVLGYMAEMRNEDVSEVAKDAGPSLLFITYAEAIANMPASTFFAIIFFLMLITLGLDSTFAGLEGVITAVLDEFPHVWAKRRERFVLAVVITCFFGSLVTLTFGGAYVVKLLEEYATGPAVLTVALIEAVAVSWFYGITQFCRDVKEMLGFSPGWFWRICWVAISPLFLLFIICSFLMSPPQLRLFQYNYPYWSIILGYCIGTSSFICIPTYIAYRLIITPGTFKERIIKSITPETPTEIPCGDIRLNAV
# Gamma-aminobutyric acid receptor subunit alpha-1, sequence (P62813 whole entry): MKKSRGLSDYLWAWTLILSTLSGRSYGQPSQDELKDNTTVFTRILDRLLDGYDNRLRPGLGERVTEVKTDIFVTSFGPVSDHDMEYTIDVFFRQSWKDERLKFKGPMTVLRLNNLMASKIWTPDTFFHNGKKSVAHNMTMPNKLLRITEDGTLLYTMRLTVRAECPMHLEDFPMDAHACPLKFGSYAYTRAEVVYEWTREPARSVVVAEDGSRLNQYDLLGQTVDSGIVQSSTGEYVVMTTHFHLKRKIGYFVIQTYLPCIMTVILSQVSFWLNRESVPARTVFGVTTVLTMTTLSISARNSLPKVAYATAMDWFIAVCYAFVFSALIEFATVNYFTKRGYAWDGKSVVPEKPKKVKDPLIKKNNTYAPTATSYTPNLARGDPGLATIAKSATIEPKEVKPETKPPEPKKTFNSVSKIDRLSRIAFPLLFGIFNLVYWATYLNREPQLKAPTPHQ
# Vascular endothelial growth factor receptor 2, sequence (P35968 whole entry): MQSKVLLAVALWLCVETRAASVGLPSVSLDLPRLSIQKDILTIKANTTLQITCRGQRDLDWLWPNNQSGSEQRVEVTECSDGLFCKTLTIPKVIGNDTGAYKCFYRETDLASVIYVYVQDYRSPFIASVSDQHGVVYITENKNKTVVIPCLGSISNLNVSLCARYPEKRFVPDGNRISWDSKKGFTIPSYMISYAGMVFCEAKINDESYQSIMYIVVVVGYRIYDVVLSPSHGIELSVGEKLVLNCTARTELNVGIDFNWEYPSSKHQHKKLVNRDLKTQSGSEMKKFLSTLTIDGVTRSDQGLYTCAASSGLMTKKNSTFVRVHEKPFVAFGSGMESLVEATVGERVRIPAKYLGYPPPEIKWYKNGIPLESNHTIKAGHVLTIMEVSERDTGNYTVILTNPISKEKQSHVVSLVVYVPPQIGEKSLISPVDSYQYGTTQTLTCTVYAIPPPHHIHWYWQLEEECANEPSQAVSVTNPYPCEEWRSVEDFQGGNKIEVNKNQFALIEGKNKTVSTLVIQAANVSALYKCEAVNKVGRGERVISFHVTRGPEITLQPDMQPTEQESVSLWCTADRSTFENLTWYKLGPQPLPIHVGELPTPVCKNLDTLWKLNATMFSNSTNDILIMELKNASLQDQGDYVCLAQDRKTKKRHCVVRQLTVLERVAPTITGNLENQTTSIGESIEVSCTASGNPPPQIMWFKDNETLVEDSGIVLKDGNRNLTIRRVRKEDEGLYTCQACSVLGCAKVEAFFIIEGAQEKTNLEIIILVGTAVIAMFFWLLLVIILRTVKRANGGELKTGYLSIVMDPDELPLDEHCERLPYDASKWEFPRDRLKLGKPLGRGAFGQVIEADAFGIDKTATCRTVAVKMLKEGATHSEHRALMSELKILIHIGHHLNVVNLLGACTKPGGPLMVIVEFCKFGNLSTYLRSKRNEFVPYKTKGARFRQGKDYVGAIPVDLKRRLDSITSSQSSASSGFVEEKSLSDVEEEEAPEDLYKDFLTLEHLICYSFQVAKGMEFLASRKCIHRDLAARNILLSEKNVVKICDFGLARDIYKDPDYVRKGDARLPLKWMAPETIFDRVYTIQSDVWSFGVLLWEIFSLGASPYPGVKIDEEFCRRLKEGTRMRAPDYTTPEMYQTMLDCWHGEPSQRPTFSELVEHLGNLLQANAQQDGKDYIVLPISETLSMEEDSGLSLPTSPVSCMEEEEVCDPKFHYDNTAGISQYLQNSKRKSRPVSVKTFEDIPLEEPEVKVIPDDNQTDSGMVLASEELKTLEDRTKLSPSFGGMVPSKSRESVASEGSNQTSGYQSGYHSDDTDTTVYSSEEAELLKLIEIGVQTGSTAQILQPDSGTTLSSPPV
# Melanocortin receptor 3, sequence (P41968 whole entry): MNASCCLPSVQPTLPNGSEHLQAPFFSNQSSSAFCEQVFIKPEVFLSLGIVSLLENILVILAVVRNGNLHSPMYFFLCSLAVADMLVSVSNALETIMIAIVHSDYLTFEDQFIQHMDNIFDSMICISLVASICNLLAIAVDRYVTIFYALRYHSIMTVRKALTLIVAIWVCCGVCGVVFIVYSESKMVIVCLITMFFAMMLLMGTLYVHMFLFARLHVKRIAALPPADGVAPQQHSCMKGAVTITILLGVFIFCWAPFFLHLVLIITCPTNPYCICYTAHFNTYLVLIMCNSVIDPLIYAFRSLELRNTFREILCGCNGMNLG
# D(1A) dopamine receptor, sequence (P21728 whole entry): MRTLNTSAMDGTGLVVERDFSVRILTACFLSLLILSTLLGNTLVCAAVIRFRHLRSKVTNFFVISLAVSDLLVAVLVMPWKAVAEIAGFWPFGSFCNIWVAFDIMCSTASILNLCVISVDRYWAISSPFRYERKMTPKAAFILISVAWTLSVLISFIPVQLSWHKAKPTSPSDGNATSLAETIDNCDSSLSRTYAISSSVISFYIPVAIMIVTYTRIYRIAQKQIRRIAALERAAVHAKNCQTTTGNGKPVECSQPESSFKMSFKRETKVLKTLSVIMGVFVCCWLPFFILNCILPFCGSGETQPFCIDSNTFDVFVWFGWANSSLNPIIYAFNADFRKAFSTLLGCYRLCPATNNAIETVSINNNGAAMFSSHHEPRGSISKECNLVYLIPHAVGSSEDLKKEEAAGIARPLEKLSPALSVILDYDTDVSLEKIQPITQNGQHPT
# Histamine H3 receptor, sequence (Q9Y5N1 whole entry): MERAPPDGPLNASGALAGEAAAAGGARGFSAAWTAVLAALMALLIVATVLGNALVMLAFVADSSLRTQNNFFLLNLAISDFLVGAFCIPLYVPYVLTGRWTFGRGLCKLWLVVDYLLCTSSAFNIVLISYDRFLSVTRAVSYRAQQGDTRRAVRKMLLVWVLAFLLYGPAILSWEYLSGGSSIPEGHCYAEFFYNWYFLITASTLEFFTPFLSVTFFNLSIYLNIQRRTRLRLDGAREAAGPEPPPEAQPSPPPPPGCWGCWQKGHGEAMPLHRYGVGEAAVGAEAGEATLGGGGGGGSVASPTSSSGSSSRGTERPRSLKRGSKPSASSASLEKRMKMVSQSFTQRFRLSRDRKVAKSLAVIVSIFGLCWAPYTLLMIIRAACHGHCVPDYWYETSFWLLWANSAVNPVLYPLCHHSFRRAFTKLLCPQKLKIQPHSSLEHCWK
Compound,AC50 (Adenosine receptor A3) [µM],AC50 [1] [µM],AC50 [2] [µM],further results
CN1CCC[C@@H]1Cc1c[nH]c2ccc(CCS(=O)(=O)c3ccccc3)cc12,> 30,> 30,–,–
COc1nccnc1NS(=O)(=O)c1ccc(N)cc1,> 30,> 30,> 30,–
NC(=O)c1nc(F)c[nH]c1=O,> 30,> 30,> 30,–
CN(C)CCCN1C(=O)c2cc([N+](=O)[O-])ccc2Oc2ccccc21,> 30,0.271,> 30,–
CC(/C=C1\SC(=S)N(CC(=O)O)C1=O)=C\c1ccccc1,–,–,–,AC50 (Adenosine receptor A1): 15 µM; AC50 [3]: > 30 µM; AC50 (Histamine H3 receptor): > 30 µM; AC50 (Melanocortin receptor 3): > 30 µM; AC50 [4]: 13 µM; AC50 [5]: > 30 µM; AC50 [6]: > 30 µM; AC50 [7]: 6.4 µM; AC50 (D(1A) dopamine receptor): > 30 µM
O=S(=O)(O)CCS [2-MERCAPTOETHANESULFONIC ACID],> 30,–,> 30,–
CNCC[C@@H](Oc1ccccc1C)c1ccccc1 [ATOMOXETINE],–,–,–,AC50 (Adenosine receptor A1): > 30 µM; AC50 (Histamine H3 receptor): 30 µM; AC50 (Melanocortin receptor 3): > 30 µM; AC50 [6]: > 30 µM; AC50 (D(1A) dopamine receptor): > 30 µM
O=C(O)COc1nn(Cc2ccccc2)c2ccccc12 [BENDAZAC],> 30,> 30,> 30,–
Cc1ccc([C@@H]2O[C@H](CO)[C@@H](O)[C@H](O)[C@H]2O)cc1Cc1ccc(-c2ccc(F)cc2)s1 [CANAGLIFLOZIN ANHYDROUS],18.4,26.1,> 30,–
C=C(C)[C@@H]1CCC(C)=C[C@H]1c1c(O)cc(CCCCC)cc1O [CANNABIDIOL],–,–,–,AC50 (Adenosine receptor A1): > 30 µM; AC50 (Histamine H3 receptor): 26 µM; AC50 (Melanocortin receptor 3): 25 µM; AC50 [4]: > 30 µM; AC50 [5]: > 30 µM; AC50 [7]: > 30 µM; AC50 (D(1A) dopamine receptor): > 30 µM
CO/N=C(\C(=O)N[C@@H]1C(=O)N2C(C(=O)O)=C(COC(N)=O)CS[C@H]12)c1ccco1 [CEFUROXIME],–,–,–,AC50 (Adenosine receptor A1): > 30 µM; AC50 [3]: > 30 µM; AC50 (Histamine H3 receptor): > 30 µM; AC50 (Melanocortin receptor 3): > 30 µM; AC50 [4]: > 30 µM; AC50 [5]: > 30 µM; AC50 [7]: > 30 µM; AC50 (D(1A) dopamine receptor): > 30 µM
O=C(O)CCCc1ccc(N(CCCl)CCCl)cc1 [CHLORAMBUCIL],> 30,–,> 30,–
CN(C)CCN(Cc1ccc(Cl)cc1)c1ccccn1 [CHLOROPYRAMINE],> 30,0.0202,> 30,–
O=C(O)c1cc(=O)c2ccccc2o1 [CHROMOCARB],> 30,> 30,> 30,–
CN(CC(=O)O)C(=N)N [CREATINE],> 30,> 30,> 30,–
N[C@@H](CSSC[C@H](N)C(=O)O)C(=O)O [CYSTINE],> 30,> 30,–,–
